ChEMBL document CHEMBL1126551, “Three-dimensional quantitative structure-activity relationships of 5-HT receptor binding data for tetrahydropyridinylindole derivatives: a comparison of the Hansch and CoMFA methods” (J Med Chem, 1993)

Target: T1, 5-hydroxytryptamine receptor 1A (Rattus norvegicus, UniProt P19327)
T1 sequence (P19327 whole entry): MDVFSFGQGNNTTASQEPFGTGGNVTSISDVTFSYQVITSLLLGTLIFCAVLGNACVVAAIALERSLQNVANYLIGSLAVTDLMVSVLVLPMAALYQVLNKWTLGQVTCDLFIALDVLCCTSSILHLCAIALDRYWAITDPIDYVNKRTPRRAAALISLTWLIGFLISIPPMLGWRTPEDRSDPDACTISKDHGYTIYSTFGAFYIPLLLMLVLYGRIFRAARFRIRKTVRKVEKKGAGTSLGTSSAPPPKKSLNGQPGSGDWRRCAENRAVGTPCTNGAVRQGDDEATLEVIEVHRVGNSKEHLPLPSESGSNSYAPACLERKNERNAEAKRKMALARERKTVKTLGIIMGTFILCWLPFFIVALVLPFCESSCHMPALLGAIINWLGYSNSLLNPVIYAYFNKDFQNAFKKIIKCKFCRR
Description: Binding affinity towards 5-hydroxytryptamine 1A receptor using [3H]8-OH-DPAT as radioligand.

Row | SMILES | Ki
1 | CN1CC=C(c2c[nH]c3ccc([Si](C)(C)C)cc23)CC1 | 0.165 µM
2 | COc1ccc2[nH]cc(C3CCN(C)CC3)c2c1 | 0.138 µM
3 | CCN1CC=C(c2c[nH]c3ccc(C(=O)OC)cc23)CC1 | 0.384 µM
4 | CCCN1CC=C(c2c[nH]c3ccc(OC)cc23)CC1 | 0.363 µM
5 | CCOC(=O)c1ccc2[nH]cc(C3=CCN(C)CC3)c2c1 | 0.0361 µM
6 | CC(=O)Nc1ccc2[nH]cc(C3=CCN(C)CC3)c2c1 | 0.0776 µM
7 | CN1CC=C(c2c[nH]c3ccccc23)CC1 | 0.146 µM
8 | CN1CC=C(c2c[nH]c3ccc(O)cc23)CC1 | 0.0617 µM
9 | CN1CC=C(c2c[nH]c3ccc(N4C(=O)c5ccccc5C4=O)cc23)CC1 | 0.377 µM
10 | CN1CC=C(c2c[nH]c3ccc(-c4ccccn4)cc23)CC1 | 0.0251 µM
11 | CCCN1CC=C(c2c[nH]c3ccccc23)CC1 | 0.556 µM
12 | CN1CC=C(c2c[nH]c3ccc(-c4ccc(F)cc4)cc23)CC1 | 0.069 µM
13 | CN1CC=C(c2c[nH]c3ccc(NS(C)(=O)=O)cc23)CC1 | 0.692 µM
14 | CN1CC=C(c2c[nH]c3ccc(Br)cc23)CC1 | 0.011 µM
15 | CN1CC=C(c2c[nH]c3ccc(-c4cccs4)cc23)CC1 | 0.019 µM
16 | COC(=O)c1ccc2[nH]cc(C3=CCN(C)CC3)c2c1 | 0.0194 µM
17 | C1=C(c2c[nH]c3ccccc23)CCNC1 | 0.189 µM
18 | CC(=O)Oc1ccc2[nH]cc(C3=CCN(C)CC3)c2c1 | 0.0813 µM
19 | CC(O)c1ccc2[nH]cc(C3=CCN(C)CC3)c2c1 (stereo unspecified) | 0.221 µM
20 | CN1CC=C(c2c[nH]c3ccc([S+](C)[O-])cc23)CC1 (stereo unspecified) | 0.105 µM
21 | CCCN1CC=C(c2c[nH]c3ccc(C(N)=O)cc23)CC1 | 0.017 µM
22 | CC(=O)c1ccc2[nH]cc(C3=CCN(C)CC3)c2c1 | 0.023 µM
23 | CCCN1CC=C(c2c[nH]c3ccc(C#N)cc23)CC1 | 0.303 µM

Row | SMILES | Ki
24 | CN1CC=C(c2cn(Cc3ccccc3)c3ccccc23)CC1 | 10 µM
25 | CN1CC=C(c2c[nH]c3ccc(-c4ccncc4)cc23)CC1 | 0.0741 µM
26 | CN1CC=C(c2c[nH]c3ccc(Cl)cc23)CC1 | 0.189 µM
27 | O=[N+]([O-])c1ccc2[nH]cc(C3=CCNCC3)c2c1 | 0.0646 µM
28 | CN1CC=C(c2c[nH]c3ccc(OCc4ccccc4)cc23)CC1 | 0.111 µM
29 | CN1CC=C(c2c[nH]c3ccc(C(N)=O)cc23)CC1 | 0.0053 µM
30 | CN1CC=C(c2c[nH]c3ccc([N+](=O)[O-])cc23)CC1 | 0.0211 µM
31 | CN1CC=C(c2c[nH]c3ccc(C#N)cc23)CC1 | 0.055 µM
32 | CN1CC=C(c2c[nH]c3ccc(-c4ccccc4)cc23)CC1 | 0.055 µM
33 | COc1ccc2[nH]c(C)c(C3=CCN(C)CC3)c2c1 | 0.345 µM
34 | C1=C(c2c[nH]c3ccccc23)CCN(Cc2ccccc2)C1 | 0.923 µM
35 | COc1ccc2[nH]cc(C3=CCN(C)CC3)c2c1 | 0.0211 µM
36 | CN1CC=C(c2c[nH]c3ccc(C(C)(C)O)cc23)CC1 | 0.187 µM
37 | CCCN1CC=C(c2c[nH]c3ccc(NC(C)=O)cc23)CC1 | 0.037 µM
38 | CN1CC=C(c2c[nH]c3ccc(CO)cc23)CC1 | 0.126 µM
39 | CSc1ccc2[nH]cc(C3=CCN(C)CC3)c2c1 | 0.023 µM
40 | CN1CC=C(c2c[nH]c3ccc(S(C)(=O)=O)cc23)CC1 | 0.188 µM
41 | CN1CCC(c2c[nH]c3ccccc23)(c2c[nH]c3ccccc23)CC1 | 0.55 µM
42 | CN1CC=C(c2c[nH]c3ccc(C4OCCO4)cc23)CC1 | 0.0879 µM
43 | CN1CCC(c2c[nH]c3ccccc23)CC1 | 0.513 µM
44 | CN1CC=C(c2c[nH]c3ccc(-c4ccsc4)cc23)CC1 | 0.0251 µM
45 | Cc1ccc2[nH]cc(C3=CCN(C)CC3)c2c1 | 0.146 µM
46 | CN1CC=C(c2c[nH]c3ccc(-c4cccnc4)cc23)CC1 | 0.2 µM
